From BindingDB's records for doi:10.1021/acs.jmedchem.5b01091 (University of Manchester, 2016)

Assay: Inhibition of NLRP3 in mouse J774 macrophages assessed as reduction in Bacillus anthracis lethal toxin induced cell death

CC1(C)C(=O)C=C[C@]2(C)[C@H]3CC[C@@]4(C)[C@H](c5ccoc5)OC(=O)[C@H]5O[C@]54[C@]3(C)C=C[C@@H]12
IC50: 5 µM
